EP0536419B1, “TRICYCLIC TRIAZOLE DERIVATIVES, PRODUCTION AND USE THEREOF” (TORAY INDUSTRIES, INC., priority 1991, dated 1992)
Structures can show the parent of a compound that is named as a salt. Where two headings read alike, the source gives them in different places.

Columns and labels:
histamine = assay: Histamine-antagonizing action: histamine-induced skin pigment leakage in rats; assay type: in vivo; conditions: Rattus norvegicus, oral, 50 mg/kg in olive oil, 1 hour before intracutaneous histamine (50 µl of 900 µM), read-out: Inhibition Rate (%) Antihistamine
Description: A suspension of a test compound in olive oil was orally administered at a dose of 50 mg/kg to each rat of the same kind as those used in 1. One hour later, physiological saline containing 1% Evans blue was intravenously administered at a dose of 3 ml/kg. Immediately thereafter, 50 µl of 900 µM histamine solution was intracutaneously administered to each rat. Thirty minutes later, the pigment in the blue-stained portion in the skin was extracted and quantified as mentioned above. Using the amount of the pigment when olive oil was administered as control, the inhibition rate which is the ratio of the amount of the pigment when the test compound was administered to the control was calculated.

rabbit platelets = rabbit platelets (Oryctolagus cuniculus, UniProt G1TEI7); assay: in vitro platelet agglutination inhibition test (PAF-induced); assay type: cell-based; conditions: rabbit platelet-rich plasma, PAF final concentration 10 ng/ml, 37°C; read-out: PAF-Induced Platelet Aggregation IC50 (converted)
Description: To determine the PAF-antagonizing property of the compounds, the PAF-induced agglutination of rabbit platelets in vitro is utilized. To obtain platelet-rich plasma (PRP), venous blood is taken from rabbit auricular vein into a plastic centrifugal tube containing 1.0% sodium citrate solution. The ratio of sodium citrate solution to blood is 1:10. The obtained citrate-containing blood is centrifuged at 70 x g (625 rpm) at room temperature for 20 minutes and the PRP in the upper layer is transferred to another plastic tube. The remaining lower layer is further centrifuged at 1500 x g (2800 rpm) for 10 minutes and the platelet poor plasma (PPP) in the upper layer is recovered. The platelet agglutination is measured by using aggregometer commercially available from Niko Bioscience, Inc. An aliquote of the PRP is poured into a cubette for measurement. Immediately thereafter, aspirin, creatinin phosphate and creatinin phosphokinase are added to final concentrations of 0.1 mM, 7 mM and 45 U/ml, respectively. Then a solution of a test compound is added and the resulting mixture is stirred at 37°C for 2 minutes. To the resultant, PAF (final concentration: 10 ng/ml) is added to induce platelet aggregation. The platelet aggregation rate is calculated from the relative maximum value in each aggregation curve taking the transmittance of PPP as the maximum aggregation (100% aggregation). Using the aggregation rate when physiological saline was added as a control, the inhibition rate which was the ratio of the aggregation rate when the test compound was added to the control was calculated and the IC50 values were determined by interpolation.

PAF receptor = molecular target: T1, PAF receptor (Oryctolagus cuniculus, UniProt G1TEI7); assay: Binding test using [3H]-PAF (PAF receptor binding test); set-up: species or system rabbit
T1 construct: Cell membrane fraction of rabbit platelets was prepared; from tissue; host or cells: rabbit platelets (cell membrane fraction)
Description: Binding Test Using [^3H]-PAF (PAF receptor binding test)
Cell membrane fraction of rabbit platelets was prepared in accordance with the method by Hwang et al (Biochemistry; 22; 4756, (1983)). In 10 mM Tris buffer containing 0.25% bovine serum albumin, 50 mg of this membrane fraction was suspended and tritium-labelled PAF [^3H]-PAF; 0.4 nM) and a test compound were added thereto. After incubating the resulting mixture at 25°C for 60 minutes, the mixture was subjected to filtration through a filter paper made of glass fibers. The filter paper was washed with cold Tris buffer three times and then transferred to a vial. A scintillator was added thereto and the dose of radioactivity was measured with a liquid scintillation counter. The inhibition rate (binding ability) of the test compound was calculated according to the following equation and IC50 values were determined by interpolation. Inhibition Rate (%) = {1 - [((A - B))/((C - B))]} x 100 [formula] (wherein A represents amount bound in the presence of the compound, B represents amount bound by non-specific binding which is the dose of [^3H]-PAF bound radioactivity in the presence of 1 µM of PAF, and C represents total amount bound which is the dose of [^3H]-PAF bound radioactivity.
As a control agent, WEB2086 (Japanese Laid-open Patent Application (Kokai) No. 65-176591) disclosed as a PAF-antagonist was used.

[1] = system: passive cutaneous anaphylaxis (PCA); assay: Test for antiallergic action: rat passive cutaneous anaphylaxis (PCA) reaction; assay type: in vivo; conditions: rats, oral, 50 mg/kg in olive oil, 1 hour before antigen challenge, read-out: Inhibition Rate (%) Anti-PCA
Description: The antiallergic action was evaluated by passive cutaneous anaphylaxis (PCA) test using rats. The test was carried out using Wister male rats having body weights of 150 - 200 g. Physiological saline containing anti-dinitrophenyl group (DNP) mouse IgE monoclonal antibody (commercially available from Seikagaku Kogyo Co., Ltd.) was intracutaneously injected in the skin of the back of each rat. Twenty three hours later, a suspension of the test compound in olive oil was orally administered at a dose of 50 mg/kg to each rat. One hour later, 0.5 ml of physiological saline containing 2 mg/ml of ovalbumin modified with dinitrophenyl hapten and 1% Evans blue were administered to each rat via femoral vein. Thirty minutes later, the rat was killed by cutting the carotid artery. The skin was peeled off and the portion stained in blue was cut out. The cut out portion was minced in […] and the pigment was extracted at 60°C for 48 hours. The minced skin was removed by centrifugation (1500 x g, 10 min.) and the absorbance at 620 nm of the supernatant was measured. Based on a preliminarily prepared calibration curve, the pigment leaked to the topical portion was quantified. As a control, olive oil alone was administered and the ratio of the amount of the pigment in test groups to the amount of the pigment in control group is expressed as inhibition rate.

[2] = system: PAF-induced Bronchial Hyperresponsiveness; assay: PAF-induced bronchial hyperresponsiveness model in guinea pigs; assay type: in vivo; conditions: oral, ratio of Ach threshold value after/before PAF inhalation
Description: The test was carried out using Hartley male guinea pigs having body weights of 300 - 400 g.
Guinea pigs were retained on body plethysmo boxes without anesthesia and the respiratory resistances (Rrs) were determined by osscilation method. […] The Ach threshold value which is required for the Rrs to reach 1.5 cm H2O/ml/sec was determined. […] The Ach threshold value means the value calculated taking the value when a guinea pig is made to inhale 1000 ug/ml of Ach aerosol for 1 minute as 1 unit. The above-described operation was carried out using Animal Ast (registered trademark) commercially available from Chest M. I. Co., Ltd.
By the method of A), the bronchial responsiveness of guinea pigs, that is, the Ach threshold values were determined. Subsequently, each animal was made to inhale aerosol of 100 µg/ml of PAF solution for 10 minutes. Forty minutes after the completion of the inhalation, the bronchial responsiveness was again measured by the method of A). The bronchial hyperresponsiveness was detected based on the ratio between the Ach threshold value before and after the inhalation of PAF (Ach respiration threshold value after inhalation of PAF/Ach respiration threshold value before inhalation of […]; Post/Pre value). That is, if the bronchial hyperresponsiveness is strongly promoted, the Post/Pre value is lower than 1.0, and if it is not promoted, the Post/Pre value is about 1.0. A suspension of a test compound in olive oil was orally administered to each guinea pig and the determined Post/Pre value was compared with that of the control group to which olive oil was administered to evaluate the inhibition effect. […]

[3] = rabbit platelet membrane fraction, [3H]-PAF 0.4 nM, 25°C, 60 minutes, read-out: Receptor Binding Inhibition IC50 (converted)

T1 sequence (G1TEI7 1-342): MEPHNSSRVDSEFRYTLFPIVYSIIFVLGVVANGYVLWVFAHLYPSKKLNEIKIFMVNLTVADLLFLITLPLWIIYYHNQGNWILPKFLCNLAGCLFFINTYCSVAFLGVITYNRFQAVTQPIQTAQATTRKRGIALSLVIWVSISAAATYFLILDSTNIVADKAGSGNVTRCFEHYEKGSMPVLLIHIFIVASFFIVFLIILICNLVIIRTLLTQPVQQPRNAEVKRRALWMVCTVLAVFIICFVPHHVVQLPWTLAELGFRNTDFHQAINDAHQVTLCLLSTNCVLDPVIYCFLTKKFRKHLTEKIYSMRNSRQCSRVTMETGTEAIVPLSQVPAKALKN
Chain of rabbit platelets (G1TEI7 1-342): as above

Row | SMILES | inhibition at 50 mg/kg (histamine) | IC50 (rabbit platelets) | IC50 (PAF receptor; [3]) | inhibition at 50 mg/kg [1] | further results
1 | Cc1nnc2c(=O)n(CCCN3CCC(=C(c4ccccc4)c4ccccc4)CC3)c3ccccc3n12 [Compound 4, 4,5-dihydro-1-methyl-5-[3-[4-(diphenylmethylene)piperidin-1-yl]propyl][1,2,4]triazolo[4,3-a] quinoxalin-4(5H)-one] | 76% | 4080 nM | 2040 nM | 44% | 
2 | Cc1nnc2n1-c1ccccc1N(CCCN1CCN(C(c3ccccc3)c3ccc(Cl)cc3)CC1)CC2 (stereo not drawn) [Compound 214, 5,6-dihydro-1-methyl-6-[3-[4-[(4-chlorophenyl)phenylmethyl]piperazin-1-yl]propyl]-4H[1,2,4]triazolo[4,3-a][1,5]benzodiazepine fumaric acid salt] |  | 6220 nM |  | 75% | 
3 | Cc1nnc2n1-c1ccccc1N(CCCN1CCC(Nc3nc4ccccc4n3Cc3ccc(F)cc3)CC1)C2 [Compound 73, 4,5-dihydro-1-methyl-5-[3-[4-[1-(4-fluorobenzyl)benzimidazol-2-ylamino]-piperidin-1-yl]propyl][1,2,4]triazolo[4,3-a] quinoxaline] |  | 8170 nM | 5630 nM |  | Post/Pre ([2]; Dose 1 mg/kg): 1.18
4 | Cc1nnc2n(CCCN3CCC(c4c[nH]c5ccccc45)CC3)c3ccccc3n12.O=C(O)/C=C/C(=O)O [Compound 192, 3-methyl-9-[3-[4-(3-indolyl)piperidin-1-yl]propyl]-9H-[1,2,4]triazolo[4,3-a]benzimidazole fumaric acid salt] |  |  | 1310 nM | 74% | Post/Pre ([2]; Dose 1 mg/kg): 1.81
5 | Cc1nnc2n1-c1ccccc1N(CCCN1CCC(C(O)(c3ccc(F)cc3)c3ccc(F)cc3)CC1)C2 [Compound 75, 4,5-dihydro-1-methyl-5-[3-[4-[hydroxybis(4-fluorophenyl)methyl]piperidin-1-yl]propyl][1,2,4]triazolo[4,3-a] quinoxaline tartaric acid salt] | 19% | 309 nM | 603 nM | 42% | 
6 | Cc1nnc2n1-c1sc(CCC(=O)N3CCOCC3)cc1C(c1ccccc1Cl)=NC2 [WEB2086, reference compound] |  |  |  |  | Post/Pre ([2]; Dose 3 mg/kg): 0.89; IC50 (PAF receptor): 110 nM
7 | Cc1nnc2n1-c1ccccc1N(CCCN1CCC(c3c[nH]c4ccccc34)CC1)C2 [Compound 49, 4,5-dihydro-1-methyl-5-[3-[4-(3-indolyl)piperidine-1-yl]propyl] [1,2,4]triazolo[4,3-a]quinoxaline] | 65% |  | 3990 nM | 58% | 
8 | Cc1nnc2n1-c1ccccc1N(CCCN1CCC(=C(c3ccccc3)c3ccccc3)CC1)C2 [Compound 46, 4,5-dihydro-1-methyl-5-[3-[4-(diphenylmethylene)piperidin-1-yl]propyl] [1,2,4]triazolo[4,3-a]quinoxaline] | 72% |  | 378 nM | 65% | Post/Pre ([2]; Dose 0.1 mg/kg): 1.14; Post/Pre ([2]; Dose 0.3 mg/kg): 1.64
9 | Cc1nnc2n(CCCN3CCC(C(O)(c4ccc(F)cc4)c4ccc(F)cc4)CC3)c3ccccc3n12 [Compound 199, 3-methyl-9-[3-[4-[hydroxybis(4-fluorophenyl)methyl]piperidin-1-yl]propyl]-9H-[1,2,4]triazolo[4,3-a]benzimidazole fumaric acid salt] |  | 190 nM | 55.4 nM | 48% | 
10 | COc1cccc(C(O)(c2ccccc2)C2CCN(CCCN3Cc4nnc(C)n4-c4ccccc43)CC2)c1 (stereo not drawn) [Compound 133, 4,5-dihydro-1-methyl-5-[3-[4-[hydroxy(3-methoxyphenyl)phenylmethyl]piperidin-1-yl]propyl] [1,2,4]triazolo[4,3-a]quinoxaline] |  | 120 nM | 32.5 nM |  | 
11 | Cc1nnc2n1-c1ccccc1N(CCCN1CCC(=C(c3ccccc3)c3cccs3)CC1)C2 [Compound 164, 4,5-dihydro-1-methyl-5-[3-[4-[phenyl(2-thienyl)methylene]piperidin-1-yl]propyl] [1,2,4]triazolo[4,3,a]quinoxaline] |  | 747 nM | 249 nM |  | 
12 | CCc1nnc2n(CCCN3CCC(c4c[nH]c5ccccc45)CC3)c3ccccc3n12 [Compound 193, 3-ethyl-9-[3-[4-(3-indolyl)piperidin-1-yl]propyl]-9H-[1,2,4]triazolo[4,3-a]benzimidazole fumaric acid salt] |  | 1550 nM | 5340 nM |  | 
13 | Cc1nnc2n(CCCN3CCN(C(c4ccccc4)c4ccccc4)CC3)c3ccccc3n12 [Compound 189, 3-methyl-9-[3-[4-(diphenylmethyl)piperazin-1-yl]propyl]-9H-[1,2,4]triazolo[4,3-a]benzimidazole dihydrochloride] | 57% | 577 nM | 260 nM | 43% | 
14 | COc1ccc(C(=C2CCN(CCCN3Cc4nnc(C)n4-c4ccccc43)CC2)c2ccccc2)cc1OC [Compound 142, 4,5-dihydro-1-methyl-5-[3-[4-[(3,4-dimethoxyphenyl)phenylmethylene]piperidin-1-yl]propyl] [1,2,4]triazolo[4,3,a]quinoxaline] |  | 952 nM | 162 nM |  | 
15 | Cc1nnc2n1-c1ccccc1N(CCCN1CCC(C(O)(c3ccccc3)c3ccc(N(C)C)cc3)CC1)C2 (stereo not drawn) [Compound 131] |  | 242 nM | 83.8 nM |  | 
16 | COc1ccc(C(O)(c2ccc(OC)c(OC)c2)C2CCN(CCCN3Cc4nnc(C)n4-c4ccccc43)CC2)cc1OC [Compound 138, 4,5-dihydro-1-methyl-5-[3-[4-[hydroxybis(3,4-dimethoxyphenyl)methyl]piperidin-1-yl]propyl] [1,2,4]triazolo[4,3-a]quinoxaline] |  | 1320 nM | 1170 nM |  | 
17 | Cc1nnc2n(CCCN3CCC(=C4c5ccccc5C=Cc5ccccc54)CC3)c3ccccc3n12 [Compound 206, 3-methyl-9-[3-[4-(5H-dibenzo[a,d]cyclohepten-5-ylidene)piperidin-1-yl]propyl]-9H-[1,2,4]triazolo[4,3-a]benzimidazole] |  | 4320 nM | 1810 nM |  | 
18 | Cc1cccc(C(=C2CCN(CCCN3Cc4nnc(C)n4-c4ccccc43)CC2)c2ccccc2)c1 [Compound 160, 4,5-dihydro-1-methyl-5-[3-[4-[phenyl(3-tolyl)methylene]piperidin-1-yl]propyl] [1,2,4]triazolo[4,3,a]quinoxaline] |  | 145 nM | 198 nM |  | 
19 | Cc1nnc2n1-c1ccccc1N(CCCN1CCN(C(c3ccc(F)cc3)c3ccc(F)cc3)CC1)C2 [Compound 45, 4,5-dihydro-1-methyl-5-[3-[4-[bis(4-fluorophenyl)methyl]piperazin-1-yl]propyl] [1,2,4]triazolo[4,3-a]quinoxaline] | 43% |  | 622 nM | 49% | 
20 | Cc1nnc2n1-c1ccccc1N(CCCN1CCC(=C(c3ccccc3)c3ccc(N(C)C)cc3)CC1)C2 [Compound 156, 4,5-dihydro-1-methyl-5-[3-[4-[(4-dimethylaminophenyl)phenyimethylene]piperidin-1-yl]propyl] [1,2,4]triazolo[4,3,a]quinoxaline] |  | 1120 nM | 55.9 nM |  | 
